Converted amounts (≈) assume the structure as drawn. Positions of bridges follow the written chain, without caps; N, C: chain ends. Non-standard residues stand in square brackets, D forms with d. Residues, ends and D or L forms follow the SMILES beside them. Groups on a side chain read outwards from the residue. Chains are numbered I, II in the order given. *: point of attachment. X4 = CC(C)C[C@@H](NC(=O)CCCCCN)C(=O)NCCCC[C@@H](NC(=O)[C@@H](CC(C)C)NC(=O)CCCCCN)C(=O)*; Ahx = NCCCCCC(=O)O
Tests used:
A. baumannii ATCC 19606 = conditions: for MIC at pH 5.0, A. baumannii ATCC 19606: ATCC 19606, pH 5; for MIC at pH 7.4, A. baumannii ATCC 19606: ATCC 19606, pH 7.4; for MIC at pH 8.0, A. baumannii ATCC 19606: ATCC 19606, pH 8
P. aeruginosa PAO1 = conditions: for MIC at pH 5.0, P. aeruginosa PAO1: PAO1, pH 5; for MIC at pH 7.4, P. aeruginosa PAO1: PAO1, pH 7.4; for MIC at pH 8.0, P. aeruginosa PAO1: PAO1, pH 8
HEK293 cell line = type: cell-based; conditions: 48 h
Description: HEK 293 cell line were cultured and maintained in DMEM (Dulbeccos modified Eagle
medium, Sigma Aldrich) supplemented with 10% FBS (Sigma Aldrich) and 1%
penicillin/streptomycin. Cells were incubated in a humidified incubator at 37°C in the presence
HEK 293 cell were seeded into 96 well plates at the density of 2 × 10^3 cells/well and incubated
in DMEM containing 10% FBS for 10-14 hours at 37°C in the presence of 5% CO2. The next
day, stock solution of compounds were prepared at concentration of 2 mg/mL in DMEM
containing 10% FBS. 1/2 or 1/3 serial dilution of the peptide dendrimers from 2 mg/mL or 200
µg/mL were performed in DMEM containing 10% FBS. The medium was removed from cell
culture and replaced with the compounds at different concentration after washing with PBS.
The cells were incubated in DMEM containing 10% FBS at 37°C in the presence of 5% CO 2.
Negative control was untreated cell culture without compounds and blank control was wells
without cell but only medium. After 48 hours, a final concentration of 10% AlamarBlue®
(Thermo Fisher Scientific, Reinach, CH) was added to each well . The cells were incubated for
3-5 hours at 37°C with 5% CO 2. The fluorescence was then measured on a Tecan Infinite
M1000 Pro plate reader at λex = 560 nm and λem = 590 nm. The value was normalized
according to the untreated cells.

E. coli W3110 = conditions: for MIC at pH 5.0, E. coli W3110: W3110, pH 5; for MIC at pH 7.4, E. coli W3110: W3110, pH 7.4; for MIC at pH 8.0, E. coli W3110: W3110, pH 8
[1] = system: S aureus COL (methicillin-resistant Staphylococcus aureus); conditions: for MIC at pH 5.0, S aureus COL: COL (methicillin-resistant, pH 5); for MIC at pH 7.4, S aureus COL: COL (methicillin-resistant, pH 7.4); for MIC at pH 8.0, S aureus COL: COL (methicillin-resistant, pH 8)
K. pneumoniae NCTC 418 = conditions: for MIC at pH 5.0, K. pneumoniae NCTC 418: NCTC 418, pH 5; for MIC at pH 7.4, K. pneumoniae NCTC 418: NCTC 418, pH 7.4; for MIC at pH 8.0, K. pneumoniae NCTC 418: NCTC 418, pH 8

MIC at pH 5.0, A. baumannii ATCC 19606 (A. baumannii ATCC 19606)	MIC at pH 7.4, A. baumannii ATCC 19606 (A. baumannii ATCC 19606)	MIC at pH 8.0, A. baumannii ATCC 19606 (A. baumannii ATCC 19606)	MIC at pH 5.0, P. aeruginosa PAO1 (P. aeruginosa PAO1)	MIC at pH 7.4, P. aeruginosa PAO1 (P. aeruginosa PAO1)	MIC at pH 8.0, P. aeruginosa PAO1 (P. aeruginosa PAO1)	MIC at pH 5.0, E. coli W3110 (E. coli W3110) [μg/mL]	MIC at pH 7.4, E. coli W3110 (E. coli W3110) [μg/mL]	MIC at pH 8.0, E. coli W3110 (E. coli W3110) [μg/mL]	MIC at pH 5.0, S aureus COL [1] [μg/mL]	MIC at pH 7.4, S aureus COL [1] [μg/mL]	MIC at pH 8.0, S aureus COL [1] [μg/mL]	MIC at pH 5.0, K. pneumoniae NCTC 418 (K. pneumoniae NCTC 418)	MIC at pH 7.4, K. pneumoniae NCTC 418 (K. pneumoniae NCTC 418)	MIC at pH 8.0, K. pneumoniae NCTC 418 (K. pneumoniae NCTC 418)	Structure (SMILES)	IC50 HEK293 (HEK293 cell line) [mg/L]
32 μg/mL	64 μg/mL	32 μg/mL	32 μg/mL	64 μg/mL	32 μg/mL	32	64	32	> 64	> 64	32	>64/>64/>64 μg/mL	>64/>64/>64 μg/mL	>64/>64/>64 μg/mL	CC(C)C[C@@H](NC(=O)[C@@H](CC(C)C)NC(=O)[C@@H](CC(C)C)NC(=O)[C@@H](CCCCNC(=O)[C@@H](CC(C)C)NC(=O)[C@@H](CC(C)C)NC(=O)[C@@H](CCCCNC(=O)[C@@H](CCCCN)NC(=O)[C@@H](CC(C)C)NC(=O)[C@@H](CCCCNC(=O)[C@@H](CC(C)C)NC(=O)[C@H](N)CCCCN)NC(=O)[C@@H](CC(C)C)NC(=O)[C@H](N)CCCCN)NC(=O)[C@@H](CCCCN)NC(=O)[C@@H](CC(C)C)NC(=O)[C@@H](CCCCNC(=O)[C@@H](CC(C)C)NC(=O)[C@H](N)CCCCN)NC(=O)[C@@H](CC(C)C)NC(=O)[C@H](N)CCCCN)NC(=O)[C@@H](CC(C)C)NC(=O)[C@@H](CC(C)C)NC(=O)[C@@H](CCCCNC(=O)[C@@H](CCCCN)NC(=O)[C@@H](CC(C)C)NC(=O)[C@@H](CCCCNC(=O)[C@@H](CC(C)C)NC(=O)[C@H](N)CCCCN)NC(=O)[C@@H](CC(C)C)NC(=O)[C@H](N)CCCCN)NC(=O)[C@@H](CCCCN)NC(=O)[C@@H](CC(C)C)NC(=O)[C@@H](CCCCNC(=O)[C@@H](CC(C)C)NC(=O)[C@H](N)CCCCN)NC(=O)[C@@H](CC(C)C)NC(=O)[C@H](N)CCCCN)C(N)=O [D-X18] (HELM PEPTIDE1{[dK].[dL].[dK].[dL].[dK].[dK].[dL].[dL].[dK].[dL].[dL].[dL].[am]}|PEPTIDE2{[dK].[dL]}|PEPTIDE3{[dK].[dL].[dK].[dL].[dK].[dK].[dL].[dL]}|PEPTIDE4{[dK].[dL]}|PEPTIDE5{[dK].[dL].[dK].[dL].[dK]}|PEPTIDE6{[dK].[dL]}|PEPTIDE7{[dK].[dL].[dK].[dL].[dK]}|PEPTIDE8{[dK].[dL]}$PEPTIDE1,PEPTIDE2,3:R3-2:R2|PEPTIDE3,PEPTIDE4,3:R3-2:R2|PEPTIDE5,PEPTIDE6,3:R3-2:R2|PEPTIDE7,PEPTIDE8,3:R3-2:R2|PEPTIDE1,PEPTIDE7,6:R3-5:R2|PEPTIDE1,PEPTIDE3,9:R3-8:R2|PEPTIDE3,PEPTIDE5,6:R3-5:R2$$$V2.0)	47 ± 12 (≈ 10.2 µM)
32 μg/mL	> 64 μg/mL	16 μg/mL	64/>64/64 μg/mL	64/>64/64 μg/mL	64/>64/64 μg/mL	32	> 64	32	> 64	> 64	16	>64/>64/>64 μg/mL	>64/>64/>64 μg/mL	>64/>64/>64 μg/mL	CC(C)C[C@@H](NC(=O)[C@@H](CC(C)C)NC(=O)[C@@H](CC(C)C)NC(=O)[C@@H](CCCCNC(=O)[C@@H](CC(C)C)NC(=O)[C@@H](CC(C)C)NC(=O)[C@@H](CCCCNC(=O)[C@@H](CCCCN)NC(=O)[C@@H](CC(C)C)NC(=O)[C@@H](CCCCNC(=O)[C@@H](CC(C)C)NC(=O)CCCCCN)NC(=O)[C@@H](CC(C)C)NC(=O)CCCCCN)NC(=O)[C@@H](CCCCN)NC(=O)[C@@H](CC(C)C)NC(=O)[C@@H](CCCCNC(=O)[C@@H](CC(C)C)NC(=O)CCCCCN)NC(=O)[C@@H](CC(C)C)NC(=O)CCCCCN)NC(=O)[C@@H](CC(C)C)NC(=O)[C@@H](CC(C)C)NC(=O)[C@@H](CCCCNC(=O)[C@@H](CCCCN)NC(=O)[C@@H](CC(C)C)NC(=O)[C@@H](CCCCNC(=O)[C@@H](CC(C)C)NC(=O)CCCCCN)NC(=O)[C@@H](CC(C)C)NC(=O)CCCCCN)NC(=O)[C@@H](CCCCN)NC(=O)[C@@H](CC(C)C)NC(=O)[C@@H](CCCCNC(=O)[C@@H](CC(C)C)NC(=O)CCCCCN)NC(=O)[C@@H](CC(C)C)NC(=O)CCCCCN)C(N)=O [D-aX18] (I: H-[Ahx][dL][dK]([dL-Ahx])[dL][dK][dK]([dK-dL-X4])[dL][dL][dK][dL][dL][dL]-NH2 / II: H-[Ahx][dL][dK]([dL-Ahx])[dL][dK][dK]([dK-dL-X4])[dL][dL]; amide I:9-II:C)	21 ± 2 (≈ 4.69 µM)
4/4/4 μg/mL	4/4/4 μg/mL	4/4/4 μg/mL	32 μg/mL	8 μg/mL	16 μg/mL	4	8	4	> 64	16	4	64 μg/mL	16 μg/mL	16 μg/mL	CC(C)C[C@@H](NC(=O)CCCCCN)C(=O)NCCCC[C@@H](NC(=O)[C@@H](CC(C)C)NC(=O)CCCCCN)C(=O)N[C@H](CC(C)C)C(=O)NCCCC[C@@H](NC(=O)[C@@H](CC(C)C)NC(=O)[C@@H](CCCCNC(=O)[C@@H](CC(C)C)NC(=O)CCCCCN)NC(=O)[C@@H](CC(C)C)NC(=O)CCCCCN)C(=O)N[C@H](CCCCN)C(=O)N[C@H](CC(C)C)C(=O)N[C@H](CC(C)C)C(=O)NCCCC[C@@H](NC(=O)[C@@H](CC(C)C)NC(=O)[C@@H](CC(C)C)NC(=O)[C@@H](CCCCN)NC(=O)[C@@H](CCCCNC(=O)[C@@H](CC(C)C)NC(=O)[C@@H](CCCCNC(=O)[C@@H](CC(C)C)NC(=O)CCCCCN)NC(=O)[C@@H](CC(C)C)NC(=O)CCCCCN)NC(=O)[C@@H](CC(C)C)NC(=O)[C@@H](CCCCNC(=O)[C@@H](CC(C)C)NC(=O)CCCCCN)NC(=O)[C@@H](CC(C)C)NC(=O)CCCCCN)C(=O)N[C@H](CC(C)C)C(=O)N[C@H](CCCCN)C(=O)N[C@H](CCCCN)C(N)=O [D-aX22] (I: H-[Ahx][dL][dK]([dL-Ahx])[dL][dK]([dL-X4])[dK][dL][dL][dK][dL][dK][dK]-NH2 / II: H-[Ahx][dL][dK]([dL-Ahx])[dL][dK]([dL-X4])[dK][dL][dL]; amide I:9-II:C)	17 ± 2 (≈ 3.99 µM)
